Series [1] addresses T1, GST-ATAD2 bromodomain / biotinylated acetylated histone H4 peptide (Homo sapiens, UniProt Q6PL18).
T1 construct: 981-1108; made in house; host or cells: Escherichia coli BL21 (DE3) pLysS, plasmid pGEX-6P-1
T1 sequence (Q6PL18 981-1108): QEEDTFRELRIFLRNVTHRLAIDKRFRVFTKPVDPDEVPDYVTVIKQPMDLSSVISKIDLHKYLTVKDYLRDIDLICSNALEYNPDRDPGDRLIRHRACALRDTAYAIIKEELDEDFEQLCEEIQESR
Put plainly: ATAD2-histone displacement HTRF assay. The format is binding. The settings on record: for IC50: HTRF format assay, highest concentration 1000 μM; for ATAD2 LE: Ligand efficiency (LE) = 1.4(–log IC50)/N, N = number of non-hydrogen atoms, from HTRF IC50. On the procedure: (§1) Surface plasmon resonance (SPR) was used to assess the direct binding of the fragments and provide Kd values for binding to both ATAD2 and BRD4. SPR can yield artefactual data where the concentration of a small-molecular analyte exceeds ∼250 μM, and accordingly, this was the highest concentration used in the assays.
1.1 Protein Purification.
The ATAD2 bromodomain 981-1108 was expressed with an N-terminal GST fusion from the pGEX-6P-1 plasmid. The plasmids were transformed into BL21 (DE3) pLysS Escherichia coli (Novagen) and then the cells grown in luria bertani (LB) media at 37 °C until an OD600 of 0.6 was reached. The temperature was reduced to 20 °C and expression induced using 0.2 mM Isopropyl β-D-1-thiogalactopyranoside (IPTG). The cells were harvested after overnight incubation and resuspended in buffer A (20 mM HEPES pH 7.4, 100 mM NaCl, 5 mM Dithiothreitol (DTT)). The cells were lysed by sonication and the lysate cleared by centrifugation (50,000 x g, 4 °C, 1 hr). The protein was passed over 5ml of glutathione Sepharose 4B resin (GE Healthcare) at 4 °C. The resin was then washed with buffer A and the protein eluted with buffer A supplemented with 10 mM glutathione. The protein was then applied to a Superdex 200 26/60 gel filtration column (GE Healthcare) equilibrated in buffer […]
1.2 Isothermal Titration Calorimetry.
ATAD2 was exchanged into ITC buffer (50 mM HEPES pH7.4, 200 mM NaCl, 1 mM DTT).
ITC measurements were carried out at 25°C on a Microcal ITC 200 (Malvern Instruments Ltd, Malvern, UK). Compound 11 at 40mM, 2% DMSO was titrated into ATAD2 prepared in the cell at 150 μM, 2% DMSO. Titrations began with an initial 0.5 μL injection followed by 19x 2 μL injections of compound, with 120s spacing between each injection, and stirred at 1000 rpm throughout the experiment. Data were then analysed using Origin 7.0 (OriginLab Corp., Burlington, NC, USA) and fit with the one-set-of-sites model.
1.3 ATAD2-Histone displacement HTRF assay.
Compounds (dissolved to 100 mM in DMSO) were dispensed into black 384 well assay plates […]
(§2) 12.5 μM using an Echo 550 (Labcyte). Each well was backfilled to a final volume of 200 nl (for the […]), resulting in final DMSO concentrations of 2 %. 5 μl of GST-ATAD2 was added to each well and incubated for 30mins resulting in a final concentration of 5 nM.
(§3) 5μl of biotinylated-histone H4 peptide (SGRG-K(Ac)-GG-K(Ac)-GLG-K(Ac)-GGA-K(Ac)- RHRKVGG-K(Biotin)) was then added to each well at a final concentration of 500nM. Both GST-ATAD2 and peptide were diluted in buffer B (50 mM Tris pH 7.5, […], 1 mM DTT, 100 μg/ml bovine serum albumin (BSA)). The plate was then incubated at room temperature for 30mins and then 5 μl LanthaScreen® Tb-anti-GST Antibody (Life Technologies) at final concentration of 5 nM was added to each well and incubated for an additional 30mins. 5 μl of streptavidin-XLL65 (Cisbio Assay) at a final concentration of […] was added to each assay well. Both dyes were diluted in buffer C (50 mM Tris pH 7.5, […], 100 μg/ml BSA). The plate was incubated at room temperature for a further 30mins and then read using a PheraStar FS (BMG Labtech). The data were analysed using Graphpad […]
(§4) 1.4 Surface Plasmon Resonance (SPR).
(§5) SPR-based ligand binding assays were performed using Biacore S200 (GE Healthcare) at 25 °C using single cycle affinity.
(§6) ATAD2N1064A was achieved using standard amine coupling on a CM5 chip surface. The surface was prepared through activation with EDC/NHS, followed by injection of 10 µg/ml of respective proteins until target level 8000 RU was reached. The surface was then quenched using 1 M Ethanolamine and washed with running buffer 10 mM HEPES, 150mM NaCl, 0.01% TWEEN20, 0.5 mM TCEP and 1% DMSO with a flow rate of […]. Compounds were injected in a dose-response manner (8 concentration points ranging from 0-200 µM) in series across the control, ATAD2, BRD4, and ATAD2-N1064A flow cells using solvent correction to account for bulk refractive index changes. The reference control channel was subtracted
(In TR-FRET formats the signal depends on donor and acceptor labels being close together.)

Another series deals with T2, ATAD2 bromodomain (Homo sapiens, UniProt Q6PL18).
T2 construct: 981-1108; GST (N); made in house; host or cells: Escherichia coli BL21 (DE3) pLysS, plasmid pGEX-6P-1
T2 sequence (Q6PL18 981-1108): T1 sequence (Q6PL18 981-1108)
Nature of the series: Surface plasmon resonance (SPR) direct binding to ATAD2. The settings on record: SPR format assay; Kd above the top concentration projected by extrapolation (extrapolated Rmax from control compound). As for the experimental part:
as §1, §2, §3, §4, §5
as §6, with “subtracted […]” for “subtracted”
(§7) from immobilised channels and dose-response data was fitted using a steady state constant Rmax 1:1 binding model, using an extrapolated Rmax determined from a binding control compound in those cases where the extrapolated Kd value was greater than the top concentration used in the experiment (200 µM). K d values are reported to the nearest 100th of micromolar. 1 […]
(§8) Crystallisation was performed at 20 °C using the hanging drop vapor diffusion method.
(§9) Crystals of ATAD2 were grown by mixing 2µl ATAD2 at 7mg/ml and 2µl precipitant containing 0.1 M BIS-TRIS pH 6.5 and 2.0 M ammonium sulfate. Crystals were harvested in a diffusion solution containing 10 mM compound, 5% DMSO, 25 mM HEPES pH 7.5, 75 mM NaCl, 50 mM BIS-TRIS pH 6.5 and 1.0 M Ammonium Sulfate for 48hrs. Prior to data collection the crystals were cryo protected with the addition of 25% (v/v) ethylene glycol to the diffusion solution. X-ray diffraction data were recorded at Diamond Light Source (Harwell, Oxfordshire, UK). Data processing was carried out using XDS, POINTLESS/AIMLESS2 and other programs of the CCP4i suite3 run through the CCP4i2 gui. Structures were solved by molecular replacement using PHASER4 and pdb 3DAI as a starting model. REFMAC5 was employed for refinement, and model building was performed using COOT6. PDBs were deposited within the protein database www.pdb.org using accession codes: 11 XXXX, 15a […]

A further series concerns the target BRD4 (Homo sapiens, UniProt O60885). Nature of the series: Surface plasmon resonance (SPR) direct binding to BRD4. The settings on record: SPR format assay; Kd above the top concentration projected by extrapolation (extrapolated Rmax from control compound). On the procedure: Surface plasmon resonance (SPR) was used to assess the direct binding of the fragments and provide Kd values for binding to both ATAD2 and BRD4. SPR can yield artefactual data where the concentration of a small-molecular analyte exceeds ∼250 μM, and accordingly, this was the highest concentration used in the assays. Where the Kd exceeded this limit, projected Kds were determined by extrapolation, using the observed response units for compound binding (RU) relative to the molecular weight of a known control compound.[23]
as §2, §3, §4, §5
as §6, with “subtracted […]” for “subtracted”
as §7, §8, §9

A word on the IC50: it is the concentration that gives 50% inhibition. A lower IC50 goes with inhibition by little substance. Usually Kd stands for the concentration at which binding is half-saturated. With `CN1C(=O)C(C)(C)c2cc(=O)n(Cc3ccc(Cl)cc3)cc21` [Compound 17j], the concentration for half-maximal inhibition (IC50) in series [1] was 190 ± 63 µM. Moreover, the “ATAD2 LE” value in series [1] is reported as 0.24. For the same compound, the Kd on ATAD2 bromodomain is 200 µM; on BRD4, 40 µM.
Regarding `CN1C(=O)C(C)(C)c2cc(=O)n(Cc3ccc(Br)cc3)cc21` [Compound 17k], in series [1], the half-inhibitory concentration (IC50) turned out to be 236 ± 36 µM and the “ATAD2 LE” value is 0.23. In addition, the Kd at ATAD2 bromodomain is 138 µM. For the same compound, the Kd at BRD4 was 48 µM.
As usually defined, the melting point is the temperature, or range, at which the solid turns liquid. As to `Cc1ccc(Cn2cc3c(cc2=O)C(C)(C)C(=O)N3C)cc1` [Compound 17l], the melting point lay in the range of 180 to 182 °C. In series [1], the IC50 stood at 274 ± 75 µM and the “ATAD2 LE” value is 0.23. Further, the Kd on ATAD2 bromodomain is more than 200 µM. The Kd on BRD4 is 58 µM.
For the compound `CN1C(=O)C(C)(C)c2cc(=O)n(Cc3ccc(C(F)(F)F)cc3)cc21` [Compound 17m], the IC50 in series [1] is 179 ± 43 µM. In series [1], the “ATAD2 LE” value is listed as 0.21. Also, the results for the dissociation constant Kd on ATAD2 bromodomain and at BRD4 were more than 200 µM and 124 µM, respectively.
Consider `CN1C(=O)C(C)(C)c2cc(=O)n(Cc3ccc(Cl)c(Cl)c3)cc21` [Compound 17n], for which the IC50 in series [1] was 299 ± 28 µM. Moreover, the “ATAD2 LE” value in series [1] turned out to be 0.21. Besides, the figures for the Kd on ATAD2 bromodomain and at BRD4 were 159 µM and 65 µM, respectively.
`CN1C(=O)C(C)(C)c2cc(=O)n(Cc3ccccc3C#N)cc21` [Compound 17o] came in with a half-maximal inhibitory concentration (IC50) in series [1] of more than 1000 µM. The Kd at ATAD2 bromodomain was more than 2000 µM; on BRD4, more than 200 µM.
In series [1], `CN1C(=O)C(C)(C)c2cc(=O)n(Cc3cccc(C#N)c3)cc21` [Compound 17p] had an IC50 of 668 ± 28 µM. The “ATAD2 LE” value in series [1] came out at 0.19. The dissociation constant (Kd) at ATAD2 bromodomain is more than 200 µM; on BRD4, 184 µM.
`CN1C(=O)C(C)(C)c2cc(=O)n(Cc3ccccc3C(=O)O)cc21` [Compound 17q] returned an IC50 in series [1] of more than 1000 µM. Besides, the results for the Kd on ATAD2 bromodomain and at BRD4 were more than 2000 µM and more than 200 µM, respectively.
`CCC1(CC)C(=O)N(C)c2cn(Cc3ccc(Cl)cc3)c(=O)cc21` [Compound 18a]: in series [1], the IC50 came to 163 ± 23 µM and the “ATAD2 LE” value is recorded as 0.22. The dissociation constant Kd at ATAD2 bromodomain is 107 µM. Besides, the Kd at BRD4 is more than 200 µM.
`CCC1(CC)C(=O)N(C)c2cn(Cc3ccc(C(F)(F)F)cc3)c(=O)cc21` [Compound 18b]: in series [1], the IC50 is 163 ± 37 µM and the “ATAD2 LE” value came out at 0.20. Besides, on ATAD2 bromodomain, the Kd was more than 200 µM. Further, the Kd at BRD4 was more than 2000 µM.
For the compound `CN1C(=O)C(C)(Cc2ccccc2)c2cc(=O)n(Cc3ccc(Cl)cc3)cc21` (stereo not shown) [Compound 22a], in series [1], the IC50 is more than 1000 µM. Also, the Kd at ATAD2 bromodomain is more than 200 µM; at BRD4, more than 2000 µM.
Turning to `CN1C(=O)C(C)(Cc2ccccn2)c2cc(=O)n(Cc3ccc(Cl)cc3)cc21` (stereo not shown) [Compound 22b], the concentration for half-maximal inhibition (IC50) in series [1] is more than 1000 µM. Moreover, the Kd at ATAD2 bromodomain and at BRD4 was more than 200 µM throughout.
As for `Cc1nc(CC2(C)C(=O)N(C)c3cn(Cc4ccc(Cl)cc4)c(=O)cc32)cs1` (stereo not shown) [Compound 22c], in series [1], the IC50 worked out at 352 µM and the “ATAD2 LE” value is 0.17. The Kd at ATAD2 bromodomain was 110 µM. Moreover, the Kd on BRD4 was more than 200 µM.
In series [1], `CN1C(=O)C(C)(CC(C)(C)C)c2cc(=O)n(Cc3ccc(Cl)cc3)cc21` (stereo not shown) [Compound 22d] registered an IC50 of 489 ± 18 µM. For the same compound, the “ATAD2 LE” value in series [1] is 0.18. For the same compound, the results for the Kd on ATAD2 bromodomain and at BRD4 were 125 µM and more than 2000 µM, respectively.
Take `CN1C(=O)C(C)(CC2(C)COC2)c2cc(=O)n(Cc3ccc(Cl)cc3)cc21` (stereo not shown) [Compound 22e]: in series [1], the IC50 was found to be 214 µM and the “ATAD2 LE” value was found to be 0.19. At ATAD2 bromodomain, the Kd is more than 200 µM. In addition, at BRD4, the Kd is more than 2000 µM.
In series [1], `CN1C(=O)C(C)(CC2CC2)c2cc(=O)n(Cc3ccc(Cl)cc3)cc21` (stereo not shown) [Compound 22f] had an IC50 of 304 ± 83 µM. For the same compound, the “ATAD2 LE” value in series [1] stood at 0.20. In addition, the Kd at ATAD2 bromodomain is 113 µM; on BRD4, more than 200 µM.

Values taken from paper PMC6102691, “Identification of a novel ligand for the ATAD2 bromodomain with selectivity over BRD4 through a fragment growing approach” (Organic & Biomolecular Chemistry, 2018).
